Experimental data as given in patent US6337064B1, “Manganese chelates with high relaxivity in serum” (Dibra S.p.A., priority 1998, dated 2002).
Read-outs that look alike come from different tables or passages of the source.

Legend:
[1] = Relaxivity in aqueous solution; assay type: physicochemical; conditions: for Relaxivity r1, aqueous solution: 0.15 M NaCl aqueous solution, 20 MHz, 39° C.; for Relaxivity r1 5 MHz, aqueous solution / Relaxivity r1 10 MHz, aqueous solution: same experimental conditions as Table 1
Method: (§1) The relaxivity of the compounds of the invention was measured both in saline solution and in human serum, reconstituted from Seronorm^(R) Human (Nycomed Pharma), lyophilized human serum, and the resulting data are summarized in TABLES 1 and 2.
(§2) TABLE 1 reports the relativity values measured for some compounds of the invention at 20 MHz; the other experimental conditions used are detailed following the table itself.
(§3) TABLE 2 comprises the results obtained from tests carried out under the same experimental conditions as above and in which r1 and r2 relaxivities were measured in serum and in aqueous solution at lower fields, precisely at 5 and 10 MHz. Said data evidence the significant increase in relaxivity obtained in serum already at 5 MHz and are indicative of the potential advantageous use of the compounds of the invention in M.R.I. diagnostic imaging at low fields.

[2] = Relaxivity in human serum reconstituted from Seronorm Human; assay type: physicochemical; conditions: for Relaxivity r1 5 MHz, Seronorm / Relaxivity r1 10 MHz, Seronorm: same experimental conditions as Table 1; for Relaxivity r1, Seronorm Human: calculated between 0 and 1 mM, 20 MHz, 39° C.
Method: as §1, §2, §3

[3] = 40° C.; 20 MHz; aqueous solution containing 20 mol % calcium ascorbate and 3 eq. of Na^+; cited from earlier work
[4] = in the presence of calcium and magnesium ions; MRM 1996, 35, 14-19; cited from earlier work
[5] = biodistribution study; Investigative Radiology 1994, 29(2), S249-S250; cited from earlier work

In the case of `C[NH2+]C[C@H](O)[C@@H](O)[C@H](O)[C@H](O)CO.C[NH2+]C[C@H](O)[C@@H](O)[C@H](O)[C@H](O)CO.O=C([O-])CN(CCN(CC(=O)[O-])[C@H](Cc1ccccc1)C(=O)[O-])CC(=O)[O-].[Mn+2]` [Example 1, Manganese complex of N-[2-[bis(carboxymethyl)-amino]ethyl]-N-(carboxymethyl)-D-phenylalanine salified with 1-deoxy-1-(methylamino)-D-glucitol (1:2)], the “Relaxivity r1, aqueous solution” value ([1]; pH 7.3) is reported as 2.93^6) mM^−1 s^−1, the “Relaxivity r1 5 MHz, aqueous solution” value [1] is reported as 4.3 mM⁻¹ s⁻¹ and the “Relaxivity r1 10 MHz, aqueous solution” value [1] is reported as 3.7 mM⁻¹ s⁻¹. For the same compound, the “Relaxivity r1 5 MHz, Seronorm” value [2] was 11.8 mM⁻¹ s⁻¹, the “Relaxivity r1 10 MHz, Seronorm” value [2] was 12.8 mM⁻¹ s⁻¹ and the “Relaxivity r1, Seronorm Human” value [2] was 15^(7) mM^−1 s^−1.

For `C[NH2+]C[C@H](O)[C@@H](O)[C@H](O)[C@H](O)CO.C[NH2+]C[C@H](O)[C@@H](O)[C@H](O)[C@H](O)CO.O=C([O-])CN(CCN(CC(=O)[O-])[C@@H](Cc1ccccc1)C(=O)[O-])[C@@H](Cc1ccccc1)C(=O)[O-].[Mn+2]` [Example 2, Manganese complex of [N,N′-1,2-ethanediylbis [N-(carboxymethyl)-L-phenylalanine]] salified with 1-deoxy-1-(methylamino)-D-glucitol (1:2)], the “Relaxivity r1, aqueous solution” value ([1]; pH 7.3) was 3.15^(6) mM^−1 s^−1, the “Relaxivity r1 5 MHz, aqueous solution” value [1] was 4.5 mM⁻¹ s⁻¹ and the “Relaxivity r1 10 MHz, aqueous solution” value [1] was 3.9 mM⁻¹ s⁻¹. The “Relaxivity r1 5 MHz, Seronorm” value [2] was 19.9 mM⁻¹ s⁻¹, the “Relaxivity r1 10 MHz, Seronorm” value [2] was 26.1 mM⁻¹ s⁻¹ and the “Relaxivity r1, Seronorm Human” value [2] was 27^(7) mM^−1 s^−1.

For `Cc1ncc(COP(=O)(O)O)c(CN(CCN(CC(=O)[O-])Cc2c(COP(=O)(O)O)cnc(C)c2O)CC(=O)[O-])c1O.[Mn+2].[Na].[Na].[Na]` [Mn-DPDP], the “Relaxivity r1, aqueous solution” value [3] is listed as 2.8^(5) L.mmol^−1.s^−1, the “Stability of the complex in liver homogenate” value [4] is listed as “dissociation” and the “Stability of the complex in vivo” value [5] is listed as “this complex dissociates, releasing manganese which accumulates in liver, pancreas and kidneys”.

For `[Cl][Mn][Cl]` [MnCl2, reference compound], the “Relaxivity r1, aqueous solution” value ([1]; pH 4) was 6.59^(2) mM^−1 s^−1 and the “Relaxivity r1, Seronorm Human” value ([2]; pH 7.0) was 53^(3) mM^−1 s^−1.
